Reference: patent publication US4740505A, “Pyridazinyloxy (or thio) phenyl phosphates” (priority 1985, dated 1988)
Read-outs that look alike come from different tables or passages of the source.

Experiments:
Spodoptera litura = assay: Effectiveness on Spodoptera litura (mortality of 3rd instar larvae on sprayed soybean leaves); assay type: in vivo
Description: Effectiveness of Spondoptera litura
Each of the test compounds listed in the following table is processed into an emulsifiable concentrate in accordance with the formulation of Example 6. The emulsifiable concentrate is diluted with water (Dyne®, a spreading agent produced by Takeda Chemical Ind. Ltd., as diluted 3,000-fold) to prepare a 100 ppm aqueous solution.
Using a spray gun (nozzle pressure of 1 kg/cm^2 gauge), 20 ml of the aqueous 100 ppm solution is sprayed over soybean seedlings in a spraying chamber (on 10th day after germination) which have been raised in jiffy pots (6 cm in diameter). Two main leaves are respectively cut off from the seedlings 2 hours and 6 days after the spraying. Each of the leaves is put into an ice cream cup (diameter: 6 cm, depth: 4 cm), and 10 larvae of Spodoptera litura at the 3rd instar are put into each of the cups. The cups are left in a room at 25° C.; after 48 hours, dead larvae are counted. The test is repeated two times. The results are shown in terms of mortality (%) in Table 6. [formula]
The following compounds are used for controls.
The same compounds are used for controls also in the following Test Examples.

Tetranychus urticae = assay: Effectiveness on Tetranychus urticae (rating of effects on kidney bean seedlings); assay type: in vivo; conditions: 500 ppm, 20 ml, rating based on percent decrease; for Rating of effect Day-2: 2nd day after treatment; for Rating of effect Day-7: 7th day after treatment
Description: Effectiveness on Tetranychus urticae
Each of the compounds listed in the following table is processed into an emulsifiable concentrate in accordance with the formulation of Example 6. The emulsifiable concentrate is diluted with water (Dyne®, a spreading agent produced by Takeda Chemical Ind. Ltd., as diluted 3,000-fold) to prepare a 500 ppm aqueous solution. Ten female adult of Tetranychus urticae are put into each kidney been seedling raised in a jiffy pot (6 cm in diameter), and left in a glass house at 28° C. for 24 hours. Each pot is taken out of the glass house; 20 ml of the aqueous solution as prepared above is spread over each kidney bean seedling. The jiffy pots are laid in the glass house again. Larvae and adult which are alive on the leaves are counted at the 2nd and 7th days after the spreading treatment. The test is repeated two times. The degrees are determined on the basis of percent decrease.

[1] = Toxicological test: oral acute toxicity in mice; parameters: species or system mice (ddY-SLC strained male); conditions: mouse, in vivo, five-week aged ddY-SLC male mice
[2] = 100 ppm spray, leaves cut 6 days after spraying, dead larvae counted after 48 hours, 25° C., read-out: Mortality 6th day after spraying
[3] = 48 h, read-out: Mortality 2 hours after spraying
[4] = 100 ppm spray, leaves cut 2 hours after spraying, dead larvae counted after 48 hours, 25° C., read-out: Mortality 2 hours after spraying

Compound	mortality at 100 ppm (Spodoptera litura; [2])	mortality at 100 ppm (Spodoptera litura; [3])	Rating of effect Day-2 (Tetranychus urticae)	Rating of effect Day-7 (Tetranychus urticae)	LD50 [1]	mortality at 100 ppm (Spodoptera litura; 48 h, read-out: Mortality 6th day after spraying)	mortality at 100 ppm (Spodoptera litura; [4])
CCCSP(=O)(OCC)Oc1ccc(Oc2ccc(Cl)nn2)cc1 (stereo not drawn) [Compound No. 2, O-Ethyl-S-n-propyl-O-[4-(3-chloropyridazinyl-6-oxy)phenyl]phosphorothioate]	100%	100%	3 (≥90)	3 (≥90)			
CCCSP(=S)(OCC)Oc1ccc(Oc2ccc(Cl)nn2)cc1 (stereo not drawn) [Compound No. 3]	90%	100%	3 (≥90)	3 (≥90)	~300 mg/kg		
CCCSP(=O)(OCC)Oc1ccc(Sc2ccc(Cl)nn2)cc1 (stereo not drawn) [Compound No. 4]	95%	100%	3 (≥90)	3 (≥90)	> 300 mg/kg		
CCCSP(=O)(OCC)Oc1cccc(Oc2ccc(N(C)C)nn2)c1 (stereo not drawn) [Compound No. 21, O-Ethyl-S-n-propyl-O-[3-(3-dimethylaminopyridazinyl-6-oxy)phenyl]phosphorothioate]	100%	100%	3 (≥90)	3 (≥90)			
CCC(C)SP(=O)(OC)Oc1ccccc1Oc1ccc(Cl)nn1 (stereo not drawn) [Compound No. 27, O-Methyl-S-sec-butyl-O-[2-(3-chloropyridazinyl-6-oxy)phenyl]phosphorothioate]	100%	100%	3 (≥90)	3 (≥90)			
CCCSP(=O)(OCC)Oc1ccccc1Oc1ccc(Cl)nn1 (stereo not drawn) [Compound No. 29, O-Ethyl-S-n-propyl-O-[2-(3-chloropyridazinyl-6-oxy)phenyl]phosphorothioate]		100%	3 (≥90)	3 (≥90)		90%	
CCCSP(=S)(OCC)Oc1ccccc1Oc1ccc(Cl)nn1 (stereo not drawn) [Compound No. 30, O-Ethyl-S-n-propyl-O-[2-(3-chloropyridazinyl-6-oxy)phenyl]phosphorodithioate]	100%	100%	3 (≥90)	3 (≥90)	> 300 mg/kg		
CCCSP(=S)(OCC)Oc1ccccc1Sc1ccc(Cl)nn1 (stereo not drawn) [Compound No. 32, O-Ethyl-S-n-propyl-O-[2-(3-chloropyridazinyl-6-thio)phenyl]phosphorodithioate]			3 (≥90)	3 (≥90)	> 300 mg/kg		
CCCSP(=O)(OCC)Oc1ccccc1Oc1ccc(OC)nn1 (stereo not drawn) [Compound No. 39, O-Ethyl-S-n-propyl-O-[2-(3-methoxypyridazinyl-6-oxy)phenyl]phosphorothioate]	100%	100%	3 (≥90)	3 (≥90)	~300 mg/kg		
CCCSP(=S)(OCC)Oc1ccccc1Oc1ccc(OC)nn1 (stereo not drawn) [Compound No. 40]	100%	100%	3 (≥90)	3 (≥90)	> 300 mg/kg		
COP(=S)(OC)Oc1ccc([N+](=O)[O-])c(C)c1 [Fenitrothion, reference compound]	0%		3 (≥90)	0 (≤20)			80%
CCCSP(=S)(OCC)Oc1ccc(Cl)cc1Cl (stereo not drawn) [Prothiophos, reference compound]	10%		3 (≥90)	0 (≤20)			100%
CCCSP(=O)(OCC)Oc1ccc(Oc2cccnn2)cc1 (stereo not drawn) [compound 1]	90%	100%	3 (≥90)	3 (≥90)			
CCCSP(=S)(OCC)Oc1ccc(Sc2ccc(Cl)nn2)cc1 (stereo not drawn) [compound 5]			3 (≥90)	3 (≥90)	> 300 mg/kg		
CCCSP(=O)(OCC)Oc1ccc(Oc2ccc(N(C)C)nn2)cc1 (stereo not drawn) [compound 6]	90%	100%					
CCCSP(=S)(OCC)Oc1ccc(Oc2ccc(N(C)C)nn2)cc1 (stereo not drawn) [compound 7]					> 300 mg/kg		
CCCSP(=O)(OCC)Oc1ccc(Sc2ccc(N(C)C)nn2)cc1 (stereo not drawn) [compound 8]			3 (≥90)	3 (≥90)	~300 mg/kg		
CCCSP(=S)(OCC)Oc1ccc(Sc2ccc(N(C)C)nn2)cc1 (stereo not drawn) [compound 9]			3 (≥90)	3 (≥90)	> 300 mg/kg		
CCCSP(=S)(OCC)Oc1ccc(Oc2ccc(NC(C)CC)nn2)cc1 (stereo not drawn) [compound 10]					> 300 mg/kg		
CCCSP(=O)(OCC)Oc1ccc(Sc2ccc(NC(C)CC)nn2)cc1 (stereo not drawn) [compound 11]					> 300 mg/kg		

Compound	mortality at 100 ppm (Spodoptera litura; [2])	mortality at 100 ppm (Spodoptera litura; [3])	Rating of effect Day-2 (Tetranychus urticae)	Rating of effect Day-7 (Tetranychus urticae)	LD50 [1]	mortality at 100 ppm (Spodoptera litura; 48 h, read-out: Mortality 6th day after spraying)	mortality at 100 ppm (Spodoptera litura; [4])
CCCSP(=S)(OCC)Oc1ccc(Sc2ccc(NC(C)CC)nn2)cc1 (stereo not drawn) [compound 12]					> 300 mg/kg		
CCCSP(=O)(OCC)Oc1ccc(Oc2ccc(N(C(C)=O)C(C)CC)nn2)cc1 (stereo not drawn) [compound 13]			3 (≥90)	3 (≥90)			
CCC(C)SP(=O)(OC)Oc1ccc(Oc2ccc(Cl)nn2)c(C)c1 (stereo not drawn) [compound 14]			3 (≥90)	3 (≥90)			
CCCSP(=O)(OCC)Oc1ccc(Oc2ccc(Cl)nn2)c(C)c1 (stereo not drawn) [compound 15]	100%	100%	3 (≥90)	3 (≥90)			
CCCSP(=S)(OCC)Oc1ccc(Oc2ccc(Cl)nn2)c(C)c1 (stereo not drawn) [compound 16]	100%	100%	3 (≥90)	3 (≥90)	> 300 mg/kg		
CCCSP(=O)(OCC)Oc1cccc(Oc2cccnn2)c1 (stereo not drawn) [compound 17]	100%	100%	3 (≥90)	3 (≥90)			
CCCSP(=O)(OCC)Oc1cccc(Oc2ccc(Cl)nn2)c1 (stereo not drawn) [compound 18]	100%	100%	3 (≥90)	3 (≥90)	> 300 mg/kg		
CCCSP(=O)(OCC)Oc1cccc(Sc2ccc(Cl)nn2)c1 (stereo not drawn) [compound 19]	90%	100%	3 (≥90)	3 (≥90)	> 300 mg/kg		
CCCSP(=S)(OCC)Oc1cccc(Sc2ccc(Cl)nn2)c1 (stereo not drawn) [compound 20]	90%	100%	3 (≥90)	3 (≥90)	> 300 mg/kg		
CCCSP(=O)(OCC)Oc1cccc(Oc2ccc(NC(C)CC)nn2)c1 (stereo not drawn) [compound 22]	100%	100%					
CCCSP(=O)(OCC)Oc1ccccc1Oc1ccc(Br)nn1 (stereo not drawn) [compound 24]	100%	100%	3 (≥90)	3 (≥90)	~300 mg/kg		
CCC(C)SP(=O)(OC)Oc1ccccc1Sc1ccc(Cl)nn1 (stereo not drawn) [compound 28]	95%	100%	3 (≥90)	3 (≥90)			
CCCSP(=O)(OCC)Oc1ccccc1Sc1ccc(Cl)nn1 (stereo not drawn) [compound 31]			3 (≥90)	3 (≥90)	> 300 mg/kg		
CCOP(=O)(Oc1ccccc1Oc1ccc(Cl)nn1)SC(C)C (stereo not drawn) [compound 33]					> 300 mg/kg		
CCOP(=O)(Oc1ccccc1Oc1ccc(Cl)nn1)SC(C)CC (stereo not drawn) [compound 36]	100%	100%					
CCCSP(=O)(OCC)Oc1ccccc1Oc1ccc(C)nn1 (stereo not drawn) [compound 37]			3 (≥90)	3 (≥90)			
CCCSP(=O)(OCC)Oc1ccccc1Oc1ccc(N)nn1 (stereo not drawn) [compound 43]			3 (≥90)	3 (≥90)			
CCCSP(=S)(OCC)Oc1ccccc1Oc1ccc(N)nn1 (stereo not drawn) [compound 44]			3 (≥90)	3 (≥90)	> 300 mg/kg		
CCCSP(=O)(OCC)Oc1ccccc1Sc1ccc(N(C)C)nn1 (stereo not drawn) [compound 45]			3 (≥90)	3 (≥90)			
CCCSP(=S)(OCC)Oc1ccccc1Sc1ccc(NC(C)CC)nn1 (stereo not drawn) [compound 46]			3 (≥90)	3 (≥90)	> 300 mg/kg		
